Consider 14 molecules from ChEMBL document CHEMBL3994585, “Synthesis of α-santonin derivatives for diminutive effect on T and B-cell proliferation and their structure activity relationships” (Eur J Med Chem, 2017).

Series [1] concerns B-cell. Briefly: Immunosuppressive activity in Balb/c mouse B cells assessed as LPS-induced cell proliferation at 10 uM after 48 hrs by MTT assay relative to control. Format: functional. A general note: Tetrazolium dyes change colour on reduction, which living cells bring about.
In series [2] the test system is B-cell. Briefly: Immunosuppressive activity in Balb/c mouse B cells assessed as LPS-induced cell proliferation at 1 uM after 48 hrs by MTT assay relative to control. In kind it is functional.
Series [3] deals with T-cell. Put plainly: Immunosuppressive activity in Balb/c mouse T cells assessed as ConA-induced cell proliferation at 100 uM after 48 hrs by MTT assay relative to control. Format: functional.
Series [4] concerns T-cell. Briefly: Immunosuppressive activity in Balb/c mouse T cells assessed as ConA-induced cell proliferation at 1 uM after 48 hrs by MTT assay relative to control. In kind it is functional.
The test system of series [5] is B-cell. Put plainly: Immunosuppressive activity in Balb/c mouse B cells assessed as LPS-induced cell proliferation at 100 uM after 48 hrs by MTT assay relative to control. Format: functional.
Series [6] has as its system T-cell. Put plainly: Immunosuppressive activity in Balb/c mouse T cells assessed as ConA-induced cell proliferation at 10 uM after 48 hrs by MTT assay relative to control. In kind it is functional.
Series [7] has as its system B-cell. Briefly: Cytotoxicity against Balb/c mouse B cells assessed as reduction in cell proliferation at 10 uM after 48 hrs by MTT assay. In kind it is cell-based.
Series [8] deals with B-cell. Put plainly: Cytotoxicity against Balb/c mouse B cells assessed as reduction in cell proliferation at 100 uM after 48 hrs by MTT assay. Format: cell-based.
In series [9] the test system is B-cell. Briefly: Cytotoxicity against Balb/c mouse B cells assessed as reduction in cell proliferation at 1 uM after 48 hrs by MTT assay. In kind it is cell-based.
Series [10] deals with T-cell. Put plainly: Cytotoxicity against Balb/c mouse T cells assessed as reduction in cell proliferation at 100 uM after 48 hrs by MTT assay. Format: cell-based.
The test system of series [11] is T-cell. Briefly: Cytotoxicity against Balb/c mouse T cells assessed as reduction in cell proliferation at 10 uM after 48 hrs by MTT assay. In kind it is cell-based.
The subject of series [12] is T-cell. Briefly: Immunostimulant activity in Balb/c mouse T cells assessed as ConA-induced cell proliferation at 1 uM after 48 hrs by MTT assay relative to control. Format: ADME, cell-based.
The test system of series [13] is B-cell. Put plainly: Immunostimulant activity in Balb/c mouse B cells assessed as LPS-induced cell proliferation at 1 uM after 48 hrs by MTT assay relative to control. In kind it is ADME, cell-based.
The test system of series [14] is T-cell. Put plainly: Immunostimulant activity in Balb/c mouse T cells assessed as ConA-induced cell proliferation at 10 uM after 48 hrs by MTT assay relative to control. Format: ADME, cell-based.
The test system of series [15] is T-cell. Put plainly: Immunostimulant activity in Balb/c mouse T cells assessed as ConA-induced cell proliferation at 100 uM after 48 hrs by MTT assay relative to control. In kind it is ADME, cell-based.
Series [16] relates to T-cell. Briefly: Cytotoxicity against Balb/c mouse T cells assessed as reduction in cell proliferation at 1 uM after 48 hrs by MTT assay. In kind it is cell-based.
The test system of series [17] is B-cell. Briefly: Immunostimulant activity in Balb/c mouse B cells assessed as LPS-induced cell proliferation at 10 uM after 48 hrs by MTT assay relative to control. Format: ADME, cell-based.

For the molecule `Cc1cc(OCc2cnnn2-c2ccc(C=O)cc2)c(C)c2c1CC[C@H]1[C@H](C)C(=O)O[C@@H]21`, the Activity in the series with B-cell [1] is -22.5%; in the series with B-cell [2], -24.16%; with T-cell [3], -20.83%; with T-cell [4], -5.83%; in the series with B-cell [5] it was -35%; in the series with T-cell [6] it was -6.66%.

For `CCOC(=O)[C@H](C)c1ccc2c(C)cc(O)c(C=O)c2c1`, the Activity in the series with B-cell [1] is given as -5.3%; in the series on B-cell [7], “Toxic”; in the series with B-cell [8] it was “Toxic”; in the series on B-cell [9], “Toxic”; with T-cell [10] it was “Toxic”; in the series on T-cell [11], “Toxic”. For the same molecule, the Activity is on record as -2.65% with B-cell [5]; 34.02% in the series with T-cell [12]; 14.15% in the series on B-cell [13]; 49.48% in the series on T-cell [14]; 24.74% with T-cell [15]; “Toxic” in the series on T-cell [16].

For `COc1ccc2cc(-n3nncc3COc3cc(C)c4c(c3C)[C@@H]3OC(=O)[C@@H](C)[C@@H]3CC4)ccc2c1`, the Activity was -25.64% in the series on B-cell [1]; -36.75% in the series with B-cell [2]; -93.9% in the series on T-cell [3]; -93.9% with T-cell [4]; -94.01% in the series with B-cell [5]; -95.12% with T-cell [6].

Take `COc1cc(-n2nncc2COc2cc(C)c3c(c2C)[C@@H]2OC(=O)[C@@H](C)[C@@H]2CC3)cc(OC)c1OC`: the Activity with B-cell [1] was -26.31%; in the series with B-cell [2], -16.84%; in the series with T-cell [3], -16.84%; with T-cell [4], -20%; in the series with B-cell [5], -14.73%; in the series on T-cell [6], -14.73%.

In the case of `CC1=C(Cl)C=C[C@]2(C)CC[C@@H]3C(=C12)OC(=O)[C@H]3C`, the Activity is reported as -8.84% in the series with B-cell [2]; “Toxic” with B-cell [7]; “Toxic” with B-cell [8]; “Toxic” in the series on B-cell [9]; “Toxic” in the series with T-cell [10]; “Toxic” in the series on T-cell [11]. The Activity with T-cell [4] is on record as -5.15%; in the series on B-cell [5], -4.42%; in the series with B-cell [17], 7.96%; in the series on T-cell [14] it was 16.49%; with T-cell [15], 9.27%; in the series with T-cell [16] it was “Toxic”.

`CCOC(=O)[C@H](C)c1ccc2c(C)cc(OC)c(C)c2c1`: the Activity in the series with B-cell [1] was -23.07%; in the series with B-cell [2], -40.1%; in the series on B-cell [7], “Toxic”; in the series on T-cell [3] it was -5.88%; with B-cell [8] it was “Toxic”; with B-cell [9], “Non-Toxic”. In addition, the Activity entry was “Toxic” in the series with T-cell [10]; “Toxic” with T-cell [11]; -31.61% with T-cell [4]; -25.82% in the series on B-cell [5]; -37.5% in the series on T-cell [6]; “Non-Toxic” with T-cell [16].

For `CCOC(=O)[C@H](C)c1ccc2c(C)cc(O)c(C)c2c1`, the Activity in the series on B-cell [2] was -3.84%; in the series with B-cell [7], “Toxic”; with B-cell [8] it was “Toxic”; in the series on B-cell [9] it was “Toxic”; in the series with T-cell [10], “Toxic”; with T-cell [11], “Toxic”. For the same molecule, the Activity in the series on B-cell [5] is -6.41%; in the series on T-cell [12], 15.59%; in the series with B-cell [17], 23.5%; with T-cell [14], 39.78%; with T-cell [15], 5.91%; in the series on T-cell [16] it was “Toxic”.

As to `Cc1cc(OCc2cnnn2-c2cccc(I)c2)c(C)c2c1CC[C@H]1[C@H](C)C(=O)O[C@@H]21`, the Activity in the series with B-cell [1] was -20%; in the series with B-cell [2], -15.79%; in the series with T-cell [3] it was -3.15%; in the series on T-cell [4], -15.79%; in the series with B-cell [5], -15.79%; in the series with T-cell [6], -20%.

As for `CC(=O)Nc1ccc(-n2nncc2COc2cc(C)c3c(c2C)[C@@H]2OC(=O)[C@@H](C)[C@@H]2CC3)cc1`, the Activity in the series on B-cell [1] is recorded as -36.84%; in the series with B-cell [2] it was -44.21%; in the series on T-cell [3], -6.31%; with T-cell [4], -28.42%; in the series with B-cell [5], -8.42%; in the series on T-cell [6], -29.47%.

With `Cc1cc(O)c(C)c2c1CC[C@@H]([C@@H](C)C(=O)N1CCOCC1)C2`, the Activity in the series on B-cell [2] is given as -4.97%; in the series on B-cell [7], “Non-Toxic”; in the series with T-cell [3], -21.42%; in the series with B-cell [8] it was “Non-Toxic”; with B-cell [9], “Non-Toxic”; in the series on T-cell [10], “Non-Toxic”. Besides, the Activity result with T-cell [11] is “Non-Toxic”; with B-cell [5] it was -2.98%; in the series on T-cell [12], 8.79%; in the series with B-cell [17], 14.92%; in the series on T-cell [14], 12.08%; in the series on T-cell [16], “Non-Toxic”.

Take `Cc1ccc(I)cc1-n1nncc1COc1cc(C)c2c(c1C)[C@@H]1OC(=O)[C@@H](C)[C@@H]1CC2`: the Activity is given as -14.73% in the series on B-cell [1]; -34.73% in the series with B-cell [2]; -23.15% in the series on T-cell [3]; -13.68% with T-cell [4]; -16.84% in the series with B-cell [5]; -26.31% in the series on T-cell [6].

Consider `Cc1cc(O)c(C)c2c1CC[C@@H]([C@@H](C)C(=O)Nc1nccc(C)c1[N+](=O)[O-])C2`, for which the Activity result was “Toxic” with B-cell [7]; -26.37% with T-cell [3]; “Non-Toxic” in the series with B-cell [8]; “Toxic” in the series with B-cell [9]; “Non-Toxic” in the series with T-cell [10]; “Toxic” in the series on T-cell [11]. Also, the Activity in the series with B-cell [5] is recorded as -2.98%; with T-cell [12] it was 24.72%; with B-cell [13] it was 28.35%; in the series with B-cell [17], 64.67%; in the series on T-cell [14] it was 42.85%; in the series with T-cell [16], “Toxic”.

Consider `Cc1cc(OCc2cnnn2-c2ccc3c(c2)OCO3)c(C)c2c1CC[C@H]1[C@H](C)C(=O)O[C@@H]21`, for which the Activity was -50.52% in the series with B-cell [1]; -14.73% with B-cell [2]; -29.47% in the series on T-cell [3]; -29.47% with T-cell [4]; -32.63% in the series on B-cell [5]; -45.26% in the series with T-cell [6].

Consider `COc1cccc(NC(=O)[C@H](C)[C@@H]2CCc3c(C)cc(O)c(C)c3C2)c1`, for which the Activity is given as -0.99% in the series with B-cell [2]; “Non-Toxic” in the series on B-cell [7]; -31.86% in the series with T-cell [3]; “Non-Toxic” in the series with B-cell [8]; “Toxic” in the series on B-cell [9]; “Non-Toxic” in the series on T-cell [10]. Moreover, the Activity result in the series on T-cell [11] is recorded as “Non-Toxic”; in the series on B-cell [5] it was -13.93%; in the series with T-cell [12] it was 8.79%; with B-cell [17], 3.98%; with T-cell [6], -12.63%; in the series with T-cell [16] it was “Toxic”.
